Measured values taken from patent EP0517225A1, “Aminopyrrolidine platinum compounds, a process for preparing them and pharmaceutical compositions containing them” (priority 1991, dated 1992).

Tests used:
[1] = system: E.coli bacterial strain, AB2463 mutant strain (RecA); assay: Mutagenicity test: mortality of RecA-deficient E. coli strain; assay type: cell-based; settings: RecA strain AB2463, treated for 2 hours at 37 °C
Procedure: A summary of results in mutagenicity and acute toxicity tests is given hereinbelow. a) Mutagenicity tests: E.coli bacterial strain, AB2463 mutant strain (RecA) was used. […] RecA strain, AB2463 mutant strain, which is defective in the recombination and induction of SOS system, was treated for 2 hours at 37^ºC with compounds of the present invention. […]

[2] = system: male BDF₁ mice; assay: Acute toxicity test, LD50 i.p. (Litchfield-Wilcoxon method); assay type: in vivo; settings: 6-7 week-old male BDF₁ mice, 18-22 g

SMILES | LD₁₀ [1] | LD₅₀ [1] | LD₉₀ [1] | LD₅₀ [2]
N.N.O=C([O-])C1(C(=O)[O-])CCC1.[Pt+2] [Carboplatin, reference compound] | 71.53 µM | 606.0 µM | 1599 µM | 117.5 mg/kg
CCC1C(N)CCN1C.[Cl][Pt][Cl] (stereo not drawn) [Example 3, Cis-dichloro(3-amino-2-ethyl-1-methylpyrrolidine)platinum^(II)] | 10.74 µM | 17.89 µM | 35.78 µM | 82.72 mg/kg
CC1C(N)CCN1C.[Cl][Pt][Cl] (stereo not drawn) [Example 1, Cis-dichloro(3-amino-1,2-dimethylpyrrolidine)platinum^(II)] | >1.2 µM | 5.98 µM | 13.15 µM | 95.02 mg/kg
CCN1CCC(N)C1C.[Cl][Pt][Cl] (stereo not drawn) [Example 2, Cis-dichloro(3-amino-1-ethyl-2-methylpyrrolidine)platinum^(II)] | 15.86 µM | 57.08 µM | 301.27 µM | 60.95 mg/kg
N.N.[Cl][Pt][Cl] [Cisplatin, reference compound] | 5.72 µM | 17.0 µM | 56.0 µM | 
CCC1C(N)CCN1CC.[Cl][Pt][Cl] (stereo not drawn) [Example 4, Cis-dichloro(3-amino-1,2-diethylpyrrolidine)platinum^(II)] | 18.97 µM | 35.57 µM | 72.33 µM | 113.81 mg/kg
